Data as given in the METLIN SMRT retention time set (Domingo-Almenara et al. 2019).

Test: gradient 5% acetonitrile 3 min, to 50% in 2 min, to 85% in 15 min, held 3 min, 100 µL/min
Settings: column: Zorbax Extend-C18 2.1 x 50 mm; eluents: water / acetonitrile, 0.1% formic acid
Summary of the method: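 Over 3 months, pure standards in mixtures of ~100 molecules were run by HPLC coupled to a quadrupole time-of-flight mass spectrometer in positive and negative ionization mode. The column was a Zorbax Extend-C18 (2.1 × 50 mm, 1.8 μm) at 100 μL/min, eluted with water and acetonitrile each holding 0.1% formic acid, with 40 μL dead and 900 μL dwell volumes. Retention time was determined from adduct peaks chosen by software and checked manually.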

Row | RP-LC retention time | Compound
1 | 1040 s | CCS(=O)(=O)c1nc2ccc(NS(=O)(=O)c3ccc(C(C)(C)C)cc3)cc2s1
2 | 565 s | Cc1oc2ncn(CC(=O)N3CCN(c4ccccn4)CC3)c(=O)c2c1C
3 | 835 s | CC(=O)c1ccc(NC(=O)CCSc2ccc(F)cc2)cc1
4 | 1220 s | Cc1ccc(Nc2nc(N3CCN(c4ncccn4)CC3)nc3c2C(=O)CCC3)cc1
5 | 580 s | COc1ccc(OC)c(-c2cc(C(=O)N3CCN(Cc4ccsc4)CC3)n(C)n2)c1
6 | 716 s | CCSc1nc(NC(C)C)c2cnn(CCNC(=O)Cc3c(C)noc3C)c2n1
7 | 1110 s | CCn1c(C(=O)NCc2ccccc2)cc2sc(Cl)cc21
8 | 762 s | CSc1ccccc1C(=O)N(CCc1ccccc1)Cc1ccccn1
9 | 897 s | COc1ccc(-c2nnc(-c3ccc(Cl)c(S(=O)(=O)N4CCOCC4)c3)o2)cc1
10 | 774 s | CCC(C(=O)NCc1ccccc1)n1cnc2nc3c(cc2c1=O)CCCC3 (centres undefined)
11 | 838 s | COc1ccc(-c2nc3cnccn3c2Nc2cccc(C)c2C)cc1OC
12 | 1200 s | CCOc1ccc(-c2noc(Cc3nc(-c4ccc5c(c4)OCO5)cs3)n2)cc1
13 | 797 s | Cc1ccc(Nc2nc(-c3ccncc3)nc3ccccc23)cc1
14 | 843 s | O=C(NOCCc1ccccc1)Nc1ccc([N+](=O)[O-])cc1
15 | 867 s | CCS(=O)(=O)c1ccc(C(=O)Nc2nc3c(s2)CC(C)CC3)cc1 (centres undefined)
16 | 780 s | Cc1nc(-c2ccc3c(c2)n(CC(=O)NC2CCCC2)c(=O)n3C(C)C)no1
17 | 956 s | O=C(CCC1CCCN(S(=O)(=O)c2ccccc2)C1)NCC1CCCCC1 (centres undefined)
18 | 1160 s | CCc1ccc(-c2nc(NC(=O)c3cc(C)on3)sc2C)cc1
19 | 595 s | CCOc1cc(=O)c(C(=O)N2CCC(C(N)=O)CC2)nn1-c1ccc(F)cc1

Row | RP-LC retention time | Compound
20 | 946 s | COc1ccc(CCc2nc(-c3ccc4c(c3)nc(C)c(=O)n4C)no2)cc1
21 | 810 s | O=C(Nc1cccs1)N1CCC(c2ccccc2)C1 (centres undefined)
22 | 858 s | COc1ccc(NC(=O)CSc2nnc3c4cc(-c5ccccc5)nn4ccn23)c(OC)c1
23 | 687 s | O=C(NCC(F)(F)F)C1CCN(C(=O)Cc2noc3ccccc23)CC1
24 | 1020 s | Cc1ccc(C(=O)N2CCCC(c3ccnc(Nc4ccc(F)cc4)n3)C2)s1 (centres undefined)
25 | 669 s | Cc1nc(C)c(C(=O)N2CCCC(c3nnc(-c4ccc5c(c4)OCO5)o3)C2)s1 (centres undefined)
26 | 896 s | CC1=C(c2ccccc2)S(=O)(=O)N=C1N1CCCN(C(=O)c2ccc(Cl)s2)CC1
27 | 1170 s | Cc1cc(SCC(=O)Nc2ccccc2Br)nc(-c2ccc(F)cc2)n1
28 | 937 s | Cn1nc(-c2nc(C3CC3)no2)c2c1CCN(C(=O)c1ccc(OC(F)(F)F)cc1)C2
29 | 824 s | Cc1cc(C)cc(C(=O)Nc2cnc(N3CCOCC3)nc2)c1
30 | 695 s | O=C(CCc1nc2ccccc2s1)NCC12CCCC=C1NC(=O)CC2 (centres undefined)
31 | 987 s | CCn1c(=O)c(N2CCCC(C(=O)N3CCN(c4ccc(OC)cc4)CC3)C2)nc2ccccc21 (centres undefined)
32 | 842 s | O=C(NCc1ccccc1)c1nc2ccccn2c1-c1ccsc1
33 | 570 s | CNC(=O)C1CCN(c2nc3ncn(CC(=O)NC(C)C)c(=O)c3s2)CC1
34 | 878 s | CCCN(CC1CCOC1)S(=O)(=O)Cc1ccccc1F (centres undefined)
35 | 1270 s | CCCc1ccc(S(=O)(=O)N2CCCC2c2nc(-c3ccc(F)cc3)no2)cc1 (centres undefined)
36 | 640 s | Cc1ccc(NC(=O)Nc2ccc3nc(N4CCN(C)CC4)cc(C)c3c2)cc1Cl
37 | 949 s | O=C(Nc1nc2c(s1)CCCC2C(=O)N1CCc2ccccc21)c1ccc2c(c1)OCO2 (centres undefined)
38 | 934 s | O=S(=O)(c1ccc(F)cc1)N1CCCC(c2nnnn2-c2ccccc2)C1 (centres undefined)

Continued, molecule first:

Row | Compound | RP-LC retention time
39 | Cc1ccccc1Nc1c(-c2ccc(N(C)C)cc2)nc2ccc(Cl)cn12 | 815 s
40 | O=C(c1cccnc1N1CCNC(c2ccccc2)C1)N1CCN(c2ncccn2)CC1 (centres undefined) | 604 s
41 | Cc1sc(-c2cc(C(F)(F)F)on2)cc1S(=O)(=O)N1CCC2(CC1)OCCO2 | 1120 s
42 | CCCN1C(=O)c2cc(S(=O)(=O)Nc3ccc(F)cc3C)ccc2Oc2cccnc21 | 1100 s
43 | CCCn1c(=O)c2cc(C(=O)Nc3cccc(C)c3)nn2c2ccccc21 | 1080 s
44 | Cc1c(C(=O)N2CCSCC2)cnn1-c1cc(-c2nc(C(C)C)no2)ccn1 | 974 s
45 | CC1CCc2nc3ncn(CC(=O)NCc4cccc(Br)c4)c(=O)c3cc2C1 (centres undefined) | 825 s
46 | CCC(Sc1nnc2c3ccccc3n(C(C)C)c2n1)C(=O)Nc1nc(-c2ccccc2)cs1 (centres undefined) | 1310 s
47 | Cc1nn(-c2ccc(N3CCOCC3)nn2)c(C)c1CCC(=O)Nc1ccccc1F | 709 s
48 | O=C(NCc1n[nH]c(=O)c2ccccc12)C(=O)N1CCN(c2ccccc2)CC1 | 658 s
49 | Cc1ccc(CNC(=O)c2cn(C)nc2S(=O)(=O)N2CCSCC2)cc1 | 902 s
50 | O=C1NC2=C(C(=O)CCC2)C(c2cccc([N+](=O)[O-])c2)N1 (centres undefined) | 606 s
51 | O=C(c1ccc2ncnc(N3CCCC3)c2c1)N1CCCC1 | 580 s
52 | Cc1ccc(S(=O)(=O)N2C(=O)CCC2C(=O)NCc2ccc(Cl)cc2)cc1C (centres undefined) | 966 s
53 | COc1ccc(-c2noc(C3(NC(=O)c4cccc(Cl)c4)CCCCC3)n2)cc1 | 1250 s
54 | Cc1cc(=O)n(CC(=O)Nc2cc(F)ccc2C)c(N)n1 | 608 s
55 | CCOc1ccccc1NC(=O)N1CCC2(CC1)NC(=O)c1cc(F)ccc1N2C | 817 s
56 | CC1(O)CCOC2(CCN(C(=O)c3ccc(Br)o3)CC2)C1 (centres undefined) | 690 s
57 | COCCCNC(=O)c1c(OCC2CC2)cc(=O)n2c1CCCCC2 | 611 s
58 | CCOc1cccc(CNc2nc3ccncc3n(C(C)C)c2=O)c1 | 687 s
59 | Fc1ccc(-c2nn3c(CSc4ccccc4)nnc3s2)cc1 | 967 s
60 | CC1CS(=O)(=O)N(c2ccc(S(=O)(=O)N3CCC(C(N)=O)CC3)cc2)C1=O (centres undefined) | 640 s
61 | COc1ccc(OC)c(CNC(=O)C2CCCN(c3ccc(=O)n(-c4cccc(F)c4)n3)C2)c1 (centres undefined) | 827 s
62 | Cc1cc(Cl)ccc1S(=O)(=O)N1CCC2(CC1)NCCCN=C2NC1CCCC1 | 810 s
63 | Cc1ccc(CNC(=O)CCC2CCN(c3cc(NC4CC4)ncn3)CC2)cc1 | 714 s
64 | CSc1ccc(CNC(=O)C2CCCN(C(=O)c3cc(C)cc(C)c3)C2)cc1 (centres undefined) | 921 s

Row | Compound | RP-LC retention time
65 | Clc1ccc(C2Cn3nnc(-c4nc(-c5cccc(Cl)c5)no4)c3CO2)cc1 (centres undefined) | 1310 s
66 | CCn1ccc(C(=O)N2CCCC2c2ccc(OC)cc2)n1 (centres undefined) | 795 s
67 | Cc1nc(-c2csc(S(=O)(=O)N3CCCC(C(=O)Nc4cccc(Cl)c4)C3)c2)no1 (centres undefined) | 1040 s
68 | CCN(CC)C(=O)Cn1ccc2ccc(-c3nnc(C)o3)cc21 | 718 s
69 | CCOC(=O)c1[nH]c(C)c(CCC(=O)N2CCC(C(=O)NCCc3ccc(C)cc3)CC2)c1C | 843 s
70 | Cc1oc(-c2ccc(NC(=O)CC(C)(C)C)cc2)nc1Cn1cccn1 | 883 s
71 | Cc1cccc(CC(=O)N2CCCn3cc(-c4cccc(C#N)c4)nc32)c1 | 782 s
72 | COCCN(CCOC)c1nc(-c2ccc([N+](=O)[O-])cc2)nc2ccccc12 | 849 s
73 | Cc1cccc(NC(=O)c2csc(-c3cn(C)c4ncccc34)n2)c1C | 1050 s
74 | COc1ccc(-c2noc(Cn3c(=O)n(CC4CCCO4)c(=O)c4ccccc43)n2)cc1OC (centres undefined) | 828 s
75 | Cc1noc(C)c1CCNC(=O)Cn1c2ccccc2c2cnn(C)c(=O)c21 | 706 s
76 | CCOc1ccc(C(=O)N2CCc3c(c(-c4nc(C5CC5)no4)nn3C)C2)cc1 | 837 s
77 | CCC(C)NC(=O)C1CCC(=O)N(c2ccc(OC)cc2)C1c1ccc(OC)c(OC)c1 (centres undefined) | 638 s
78 | COc1ccccc1CNC1=NCCNC12CCN(S(=O)(=O)c1ccc(C)cc1)CC2 | 743 s
79 | COc1cccc(-c2noc(Cn3ccnc3C)n2)c1OC | 601 s
80 | CCOC(=O)C(C)Sc1nnc(NC(=O)c2cccc([N+](=O)[O-])c2C)s1 (centres undefined) | 859 s
81 | O=S(=O)(c1cccnc1)N1CC(F)(F)C[C@H]1c1nc(C2CC2)no1 | 815 s
82 | Cc1ncc2c(n1)C[C@@H]1CC[C@H]2N1C(=O)Nc1ccccc1 | 636 s
83 | Cn1c(C(=O)N2CCN(c3cccc(Cl)c3)CC2)cc2sccc21 | 1090 s
84 | O=C(Nc1ccc(-c2cn3cccnc3n2)cc1)c1cccc(Br)c1 | 702 s
85 | Cc1ccc(S(=O)(=O)Nc2ccc3c(c2)CCC(=O)N3C)cc1Cl | 1000 s
86 | CCc1ccc(-c2nc(-c3ccc(-n4ccnc4)nc3)no2)cc1 | 882 s
87 | Cc1c(-c2noc(C(=O)NCCN(C)C)n2)oc2c(C)cccc12 | 676 s
88 | CN1CCN(c2ccc(-c3nc(-c4ccccc4)no3)cn2)CC1 | 664 s
89 | O=C(NC1CCCCC1)C1(CCO)CC12CCN(c1ncccn1)CC2 (centres undefined) | 651 s
